Usually melting point stands for the temperature of the solid-liquid transition. In turn, `COc1ccc(-c2ccccc2)cc1[N+]([O-])=NC(=O)OC(C)C` showed a melting point of 102 to 106 °C.
On to `C[Si](C)(C)c1cn(Cc2ccc(C#N)cc2)nn1`, for which the melting point was found to be 83 °C.
In turn, `O=C1C(=O)c2c(nc3cc(Cl)ccn23)-c2ccccc21` returned a melting point above 300 °C.
As for `Cc1ccc(S(=O)(=O)N=c2[nH]c3ccccc3s2)cc1`, the melting point lay in the range of 246 to 249 °C.
The figure for `CCCCNc1nc(N(CCCC)C2CC(C)(C)N(OC3CCCCC3)C(C)(C)C2)nc(N(CCCC)C2CC(C)(C)N(OC3CCCCC3)C(C)(C)C2)n1` is 80 to 86 °C; for `Cn1ccc(C(=O)c2ccc(O)c(Cl)c2Cl)n1` it is 220 to 222 °C.
As for `COC(=O)c1cc(I)cc(C)c1O`, the melting point is 82 to 84 °C.
Regarding `O=c1cc2c(nn1-c1ccc(Cl)cc1)-c1cc(Br)sc1SCC2`, the melting point lay within 148 to 151 °C.
The figure for `CCOP(=O)(/C=C/c1cn(-c2ccccc2)nc1OCc1ccc(OCc2nc(-c3cccc(OCC(=O)O)c3)oc2C)c(OC)c1)OCC` is 166 to 168 °C; for `Nc1ccc(CCN2CCN(c3nsc4ccccc34)CC2)cc1` it is 154 °C.
The same measure for `Cc1nc(-c2cccc(C(=O)O)c2)sc1C(=O)O`: 295 to 296 °C.
The figure for `CC1(C)Oc2ccc(C#N)cc2[C@@H](NC(=O)C2=C(c3ccccc3)CCC2)[C@@H]1O` is 156 to 158 °C; for `Cc1cn(C(C)(C)C(=O)N(C)c2ccccc2)nc1-c1ccccc1` it is 152 to 154 °C; for `CNCC1Cc2cc(C(F)(F)F)cc(-c3cccc(F)c3F)c2O1` (stereo not given) it is 123 to 125 °C.
Take `CCCCCC(=O)Nc1ccc(NNC(=O)N(C)c2cccc3c2C(=O)N(C)C3=O)cc1`: the melting point was 115 to 118 °C.
With `COc1cc(Cl)cc(Cl)c1C1=NC(C)(C)CO1`, the melting point was 45 °C.
The compound `Nc1nc(N)c2c(ccc3c2ccn3Cc2ccc(OC(F)(F)F)cc2)n1` returned a melting point of 205 to 208 °C.
The figure for `COC(=O)C1(O)CN2CCC1CC2` (stereo not given) is 122 °C.
For the compound `COc1ccc(C2(C#Cc3cc(C#N)cc(C#N)c3)CCC(=O)CC2)cc1OC1CCCC1`, the melting point was found to be 148 °C.
The compound `O=C1Cc2ccccc2C12COc1cc3c(cc12)OCC(Cc1ccccc1C(F)F)O3` (stereo not given) had a melting point of 191 to 193 °C.
The compound `Nc1nnc(-c2ccc(CN3CCCCCC3)s2)o1` returned a melting point of 232 to 234 °C.
For `CN(C)C(=O)C(Br)Cn1ccc(-c2ccccc2)n1` (stereo not given), the melting point was in the range of 93 to 94 °C.
The same measure for `CCCCCCC(C)Oc1ccc(N=Cc2ccccc2)cc1` (stereo not given): 47.3 °C; for `CC(=O)Oc1ccc(CCC(=O)Nc2cc(C)c(O)c(C)c2)cc1OC(C)=O`: 118 to 119 °C; for `CCCOc1ccc(C(=O)O)cc1C(C)=O`: 165 to 169 °C.
Turning to `CCOC(=O)C=Cc1ccc(CCNS(=O)(=O)C=Cc2ccc(Cl)cc2)cc1`, the melting point was 131 to 132 °C.
The figure for `CCN1C(=O)CCCc2c1ccc(Nc1ncc(Cl)c(Nc3ccc(N4CCOCC4)cc3OC)n1)c2OC` is 210 to 212 °C.
The same measure for `Cc1cccc(-c2ccc(S(=O)(=O)N3c4ccccc4CC3C(=O)O)cc2)c1` (stereo not given): 123 to 128 °C; for `CCCc1nc2c(N)nc3ccccc3c2n1CCCCC(N)=O`: 202 to 203 °C.
The same measure for `O=C(O)COc1ccc(C(=O)c2cccc(F)c2)c(Cl)c1Cl`: 166 to 168 °C.
The compound `Nc1cc(Cl)cc(NCCO)c1[N+](=O)[O-]` registered a melting point of 183 °C.
For the compound `O=C1C2=NCCCN2c2ccc(Br)cc21`, the melting point is 166 to 168 °C.
The same measure for `N#Cc1nn(-c2c(Cl)cc(C(F)(F)F)cc2Cl)cc1C=C(F)F`: 75 to 77 °C.
`CC[C@@H]1O[C@](/C=C/C2CC2)(C(F)(F)F)c2cc(F)ccc2NC1=O` (relative stereo): the melting point fell in the range of 148 to 149 °C.
The figure for `CC(C)c1nc(CCCO)n(C)c1Sc1cc(Cl)cc(Cl)c1` is 124 to 125 °C.
The same measure for `CCn1c(=O)c2[nH]c(C(C)C)nc2n(Cc2ccc(OC)c(OC3CCCC3)c2)c1=O`: 208 to 209 °C; for `CCc1cc2c(cc(C(N)=O)c(=O)n2Cc2ccc(-c3ccccc3-c3nnn(C(c4ccccc4)(c4ccccc4)c4ccccc4)n3)cc2)c(CC)n1`: 162 to 165 °C; for `CN1CCC2(CCc3c(C4=C(c5cn(C)c6ccccc56)C(=O)OC4=O)c4ccccc4n3C2)C1` (stereo not given): 238 to 240 °C.
`CCOC(=O)C(CC(=O)c1ccccc1C)(NC(C)=O)C(=O)OCC` had a melting point of 146 to 147 °C.
The figure for `COc1cc2c(cc1O)CCN(Cc1ccc(OC)c(OC)c1OC)C2` is 65 to 66 °C; for `COC(=O)C1CCC2C3CCC4CC(C)(O)CCC4(C)C3C(=O)CC12C` (stereo not given) it is 150 °C; for `CCCCCCCCCCCCCCCCCCC(CO)CO` it is 88 °C.
The figure for `Cc1nnc(-c2ccc3occ(-c4ccc(OS(C)(=O)=O)cc4)c3c2)o1` is 139 to 140 °C; for `CC(C(=O)O)n1c(-c2ccc(Cl)cc2)nc2cccnc21` (stereo not given) it is 226 to 229 °C; for `CCOC(=O)c1cnc(Nc2cc(C)ccc2C)[nH]c1=O` it is 252 to 254 °C.
The same measure for `Oc1cc(-c2c(F)c(F)c(F)c(F)c2F)nn1-c1ccccc1`: 149 to 151 °C; for `O=Cc1c2ccccc2cc2sccc12`: 113 °C; for `CCN(CC)CCNc1cc(Cl)cc(NCCN(CC)CC)c1[N+](=O)[O-]`: 90 °C.
On to `CCCC(O)P(=O)(O)CCCN` (stereo not given), for which the melting point is 188 °C.
The figure for `CC(=O)Nc1c([N+](=O)[O-])c(Br)nn1-c1c(Cl)cc(C(F)(F)F)cc1Cl` is 179 to 180 °C.
The same measure for `CCCCn1c(C)c(C)cc(NC(=O)c2ccc(F)cc2)c1=O`: 129 to 130 °C; for `Cc1cc([N+](=O)[O-])c(O)c(Cl)c1C`: 62 to 63 °C; for `CCOC(Cc1ccc(OCCN2c3ccccc3Sc3ccccc32)cc1)C(=O)O` (stereo not given): 106 to 113 °C.
`C=CCOc1cc(Cl)ccc1C(=O)OC`: the melting point was 47 to 55 °C.
The same measure for `CC1(C)SC(c2ccccc2O)NC1C(=O)O` (stereo not given): 179 to 181 °C; for `Nc1cc(-n2c(=O)oc3c(c2=O)CCC3)c(F)cc1Cl`: 93 °C.
`CC(C)c1cc(O)nc(-c2ccc(Cl)cc2)n1`: the melting point is 164 °C.
The figure for `CC(NC(=O)C(O)c1cc(F)cc(F)c1)C(=O)NC1C(=O)N(C)c2ccccc2N(c2ccccc2)C1=O` (stereo not given) is 212 to 213 °C; for `COc1nsc2nc3ccccc3n12` it is 172 to 175 °C; for `O=C(Nc1ccccc1)OC1C=CC2COC1O2` (stereo not given) it is 107 to 109 °C.
The same measure for `c1c[nH]c(C(c2ccc[nH]2)C23CC4CC(CC(C4)C2)C3)c1`: 168 to 169 °C; for `ON=C(c1ccc(F)cc1)c1ccc2nc(N[C@@H]3CCc4ccccc43)ccc2c1`: 226 °C.
The same measure for `CC(=O)Nc1cc(O)ccc1/C=C/c1ccc(O)cc1`: 227 to 229 °C; for `O=S(=O)(Cl)CCc1ccc(Cl)cc1`: 87 to 87.5 °C; for `O=C(O)c1ccc2c(c1)CCc1ccc(Br)cc1C2=O`: 218 to 219 °C.
On to `CC(C)(Cc1cc2ccccc2[nH]1)[N+](=O)[O-]`, for which the melting point was in the range of 102 to 103 °C.
The figure for `O=S(=O)(F)c1c(F)nc2ccccn12` is 108 to 110 °C.
`CC(=O)c1ccc(OCCCCl)c(O)c1` registered a melting point of 101 to 103 °C.
The same measure for `CCOC(=O)c1cn2c(cc(OC(C)C)c3ccc(Cl)cc32)n1`: 187 to 189 °C.
`O=C(Nc1ccc(Cl)cc1)c1c(O)c2cccnc2n(-c2ccccc2)c1=O` returned a melting point of 281 to 286 °C.
Regarding `COc1cccc2c(=O)c(-c3cccc(C(F)(F)F)c3Cl)nn(Cc3ccc(F)cc3F)c12`, the melting point lay in the range of 141 to 142 °C.
The figure for `COc1c(F)ccc2c1C(=O)N1CC[C@H]1c1c(-c3noc(CN)n3)ncn1-2` is 196 to 198 °C.
The figure for `CSc1ccc(CC#N)cc1` is 44 to 45 °C; for `CN(O)C(=O)NCCCCCOc1ccc(-c2ccccc2)cc1` it is 153 to 154 °C.
The figure for `CCOC(=O)c1nc2sc3c(c2c(=O)[nH]1)CCCC3` is 207 to 209 °C; for `COc1cc(NC(=S)NC(=O)/C=C/c2ccco2)ccc1-c1cc2ccccc2oc1=O` it is 227 to 230 °C; for `COc1ccc(S(=O)(=O)Nc2ccccc2NC(=O)c2ccncc2)cc1` it is 162 to 163 °C.
`Cc1ccc(S(=O)(=O)OC[C@H]2COc3ccc(Cl)cc3O2)cc1` showed a melting point of 90 to 91 °C.
The same measure for `CCCCc1c(C=O)cc(OC)c2ccccc12`: 51 to 52 °C.
As to `O=C1CCC(N2Cc3c(OCc4ccc(CN5CCC(c6cccnc6)CC5)cc4)cccc3C2=O)C(=O)N1` (stereo not given), the melting point was 161 to 163 °C.
In turn, `N#Cc1cccc(OCc2ccccc2)c1` had a melting point of 38 to 40 °C.
Consider `NS(=O)(=O)c1cc2c(s1)S(=O)(=O)CC(=S)N2`, for which the melting point was 219 to 221 °C.
The same measure for `COc1ccccc1C1(O)C(O)CC(c2ccccc2)(c2ccccc2)C2CN(C(=O)Cc3ccccc3OCc3ccccc3)CC21` (stereo not given): 158 °C.
The compound `NCCCCC(=O)N1CCC(c2[nH]nc3c2C(=O)c2c(NC(=O)NN4CCOCC4)cccc2-3)CC1` had a melting point of 103 to 105 °C.
The same measure for `CSc1nc(N)nc(Cl)c1-c1ccc(Cl)cc1Cl`: 201 to 202 °C; for `COC(=O)Cc1ccc(CNC(=O)C2Cc3ccccc3N2S(=O)(=O)c2ccc(-c3cccc(C(F)(F)F)c3)cc2)cc1` (stereo not given): 74 °C; for `CCc1cccc(CNC(=O)c2nc3scc(COCc4ccc(C(=O)O)cc4)c3c(=O)[nH]2)c1`: 240 to 242 °C.
On to `Nc1c(C(F)(F)F)cc(Cl)c2[nH]c(=O)c(=O)[nH]c12`, for which the melting point is above 360 °C.
Regarding `Cc1cc(O)cc(C)c1-c1ccccc1`, the melting point is 128 to 130 °C.
`O=C(Cc1cccs1)NCc1cccc2c1C(=O)N(C1CCC(=O)NC1=O)C2=O` (stereo not given): the melting point fell in the range of 171 to 173 °C.

For the origin of these results see a melting point compilation (Tetko et al.; mined from patent text by program, amines drawn as free bases though some values may be those of a salt).
